Reference: US12577206B2 (BRISTOL-MYERS SQUIBB COMPANY, priority 2020, dated 2026)

Legend:
human FPR2 = target: T1, human FPR2 (Homo sapiens, UniProt P25090); assay: FPR2 cyclic adenosine monophosphate (cAMP) assay; type: cell-based; details: CHO cells overexpressing human FPR2; forskolin 5 μM; inhibition of cAMP production; HTRF; read-out: hFPR2 cAMP2 EC50
T1 sequence (P25090 1-351): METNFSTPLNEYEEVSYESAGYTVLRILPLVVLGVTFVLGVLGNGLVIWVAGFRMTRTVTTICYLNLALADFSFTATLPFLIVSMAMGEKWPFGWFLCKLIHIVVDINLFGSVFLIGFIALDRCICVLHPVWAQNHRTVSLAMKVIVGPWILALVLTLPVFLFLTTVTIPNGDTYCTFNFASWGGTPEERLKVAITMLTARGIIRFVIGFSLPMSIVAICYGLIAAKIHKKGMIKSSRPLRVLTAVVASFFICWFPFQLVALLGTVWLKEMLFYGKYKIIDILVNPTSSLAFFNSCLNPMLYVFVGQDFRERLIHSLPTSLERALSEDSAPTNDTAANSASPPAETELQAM
Procedure, shortened: (§1)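 CHO cells overexpressing human FPR1 (4,000/well) or FPR2 (2,000/well) were incubated 30 min at room temperature with compound (0.020 nM to 100 μM, 1% DMSO), IBMX 200 μM, and forskolin at 10 μM (FPR1) or 5 μM (FPR2), all final. HTRF cAMP read-out; inhibition fitted by 4-parameter logistic equation.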

human FPR1 = target: T2, human FPR1 (Homo sapiens, UniProt P21462); assay: FPR1 cyclic adenosine monophosphate (cAMP) assay; type: cell-based; details: CHO cells overexpressing human FPR1; forskolin 10 μM; inhibition of cAMP production; HTRF; read-out: hFPR1 cAMP2 EC50
T2 sequence (P21462 1-350): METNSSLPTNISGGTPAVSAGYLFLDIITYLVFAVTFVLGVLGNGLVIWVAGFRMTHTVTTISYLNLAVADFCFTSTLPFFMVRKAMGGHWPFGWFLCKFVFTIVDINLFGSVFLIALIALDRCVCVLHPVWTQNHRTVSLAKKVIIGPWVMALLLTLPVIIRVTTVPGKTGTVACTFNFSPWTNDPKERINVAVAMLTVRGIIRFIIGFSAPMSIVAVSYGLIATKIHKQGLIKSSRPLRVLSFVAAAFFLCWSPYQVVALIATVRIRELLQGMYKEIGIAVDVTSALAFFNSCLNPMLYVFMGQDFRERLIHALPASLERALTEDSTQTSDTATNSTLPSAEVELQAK
Procedure, shortened: as §1

EC50 (human FPR2)	EC50 (human FPR1)	SMILES
0.015 µM	4 µM	COc1cc(F)c(-c2c(NC(=O)c3ccc(OC(F)F)cc3)c(=O)n(-c3cccc(C(F)(F)F)n3)n2C)c(F)c1 [Example 156, N-[5-(2,6-difluoro-4-methoxyphenyl)-1-methyl-3-oxo-2-[6-(trifluoromethyl)pyridin-2-yl]-2,3-dihydro-1H-pyrazol-4-yl]-4-(difluoromethoxy)benzamide]
0.004 µM	> 10 µM	COc1cc(F)c(-c2c(NC(=O)c3ccc(OC(F)F)cc3)c(=O)n(-c3nc(C(F)(F)F)ccc3C#N)n2C)c(F)c1 [Example 157, N-{2-[3-cyano-6-(trifluoromethyl)pyridin-2-yl]-5-(2,6-difluoro-4-methoxyphenyl)-1-methyl-3-oxo-2,3-dihydro-1H-pyrazol-4-yl}-4-(difluoromethoxy)benzamide]
0.013 µM	> 10 µM	COc1cc(F)c(-c2c(NC(=O)c3ccc(OC(F)F)cc3)c(=O)n(-c3ncccc3OC(F)F)n2C)c(F)c1 [Example 158, N-[5-(2,6-difluoro-4-methoxyphenyl)-2-[3-(difluoromethoxy)pyridin-2-yl]-1-methyl-3-oxo-2,3-dihydro-1H-pyrazol-4-yl]-4-(difluoromethoxy)benzamide]
0.007 µM	> 10 µM	COc1cc(F)c(-c2c(NC(=O)c3ccc(OC(F)F)cc3)c(=O)n(-c3nc(C(F)(F)F)ccc3Br)n2C)c(F)c1 [Example 159, N-{2-[3-bromo-6-(trifluoromethyl)pyridin-2-yl]-5-(2,6-difluoro-4-methoxyphenyl)-1-methyl-3-oxo-2,3-dihydro-1H-pyrazol-4-yl}-4-(difluoromethoxy)benzamide]
0.003 µM	> 10 µM	COc1cc(F)c(-c2c(NC(=O)c3ccc(OC(F)F)cc3)c(=O)n(-c3nc(C4CC4)ccc3Br)n2C)c(F)c1 [Example 160, N-[2-(3-bromo-6-cyclopropylpyridin-2-yl)-5-(2,6-difluoro-4-methoxyphenyl)-1-methyl-3-oxo-2,3-dihydro-1H-pyrazol-4-yl]-4-(difluoromethoxy)benzamide]
0.004 µM	> 10 µM	COc1cc(F)c(-c2c(NC(=O)c3ccc(OC(F)F)cc3)c(=O)n(-c3nc(C4CC4)ccc3C#N)n2C)c(F)c1 [Example 161, N-[2-(3-cyano-6-cyclopropylpyridin-2-yl)-5-(2,6-difluoro-4-methoxyphenyl)-1-methyl-3-oxo-2,3-dihydro-1H-pyrazol-4-yl]-4-(difluoromethoxy)benzamide]
0.012 µM	> 10 µM	COc1cc(-n2c(=O)c(NC(=O)c3ccc(OC(F)F)cc3)c(-c3c(F)cc(OC)cc3F)n2C)nc(C(F)(F)F)c1 [Example 162, N-[5-(2,6-difluoro-4-methoxyphenyl)-2-[4-methoxy-6-(trifluoromethyl)pyridin-2-yl]-1-methyl-3-oxo-2,3-dihydro-1H-pyrazol-4-yl]-4-(difluoromethoxy)benzamide]
0.004 µM	> 10 µM	CCc1cccc(-n2c(=O)c(NC(=O)c3ccc(OC(F)F)cc3)c(-c3c(F)cc(OC)cc3F)n2C)n1 [Example 163, N-[5-(2,6-difluoro-4-methoxyphenyl)-2-(6-ethylpyridin-2-yl)-1-methyl-3-oxo-2,3-dihydro-1H-pyrazol-4-yl]-4-(difluoromethoxy)benzamide]
0.015 µM	> 10 µM	COc1cc(F)c(-c2c(NC(=O)c3ccc(Cl)cc3)c(=O)n(-c3ncccc3Cl)n2C)c(F)c1 [Example 164, 4-chloro-N-[2-(3-chloropyridin-2-yl)-5-(2,6-difluoro-4-methoxyphenyl)-1-methyl-3-oxo-2,3-dihydro-1H-pyrazol-4-yl]benzamide]
0.015 µM	> 10 µM	COc1cc(F)c(-c2c(NC(=O)c3ccc(OC(F)F)cc3)c(=O)n(-c3ncccc3Br)n2C)c(F)c1 [Example 165, N-[2-(3-bromopyridin-2-yl)-5-(2,6-difluoro-4-methoxyphenyl)-1-methyl-3-oxo-2,3-dihydro-1H-pyrazol-4-yl]-4-(difluoromethoxy)benzamide]
0.02 µM	> 10 µM	CCc1cccnc1-n1c(=O)c(NC(=O)c2ccc(OC(F)F)cc2)c(-c2c(F)cc(OC)cc2F)n1C [Example 166, N-[5-(2,6-difluoro-4-methoxyphenyl)-2-(3-ethylpyridin-2-yl)-1-methyl-3-oxo-2,3-dihydro-1H-pyrazol-4-yl]-4-(difluoromethoxy)benzamide]
0.004 µM	0.46 µM	COc1cc(F)c(-c2c(NC(=O)c3ccc(OC(F)(F)F)cc3)c(=O)n(-c3cccc(C4CC4)n3)n2C)c(F)c1 [Example 167, N-[2-(6-cyclopropylpyridin-2-yl)-5-(2,6-difluoro-4-methoxyphenyl)-1-methyl-3-oxo-2,3-dihydro-1H-pyrazol-4-yl]-4-(trifluoromethoxy)benzamide]
0.012 µM	> 10 µM	COc1cc(F)c(-c2c(NC(=O)c3ccc(OC(F)F)cc3)c(=O)n(-c3cccc(OC(F)F)n3)n2C)c(F)c1 [Example 168, N-[5-(2,6-difluoro-4-methoxyphenyl)-2-[6-(difluoromethoxy)pyridin-2-yl]-1-methyl-3-oxo-2,3-dihydro-1H-pyrazol-4-yl]-4-(difluoromethoxy)benzamide]
0.015 µM	1.4 µM	COc1cc(F)c(-c2c(NC(=O)c3ccc(OC(F)(F)F)cc3)c(=O)n(-c3cccc(OC(F)F)n3)n2C)c(F)c1 [Example 169, N-[5-(2,6-difluoro-4-methoxyphenyl)-2-[6-(difluoromethoxy)pyridin-2-yl]-1-methyl-3-oxo-2,3-dihydro-1H-pyrazol-4-yl]-4-(trifluoromethoxy)benzamide]
0.008 µM	> 10 µM	COc1cc(F)c(-c2c(NC(=O)c3ccc(OC(F)(F)F)cc3)c(=O)n(-c3cccnc3C#N)n2C)c(F)c1 [Example 170, N-[2-(2-cyanopyridin-3-yl)-5-(2,6-difluoro-4-methoxyphenyl)-1-methyl-3-oxo-2,3-dihydro-1H-pyrazol-4-yl]-4-(trifluoromethoxy)benzamide]
0.012 µM	> 10 µM	COc1cc(F)c(-c2c(NC(=O)c3ccc(OC(F)F)cc3)c(=O)n(-c3ccccc3Cl)n2C)c(F)c1 [Example 171, N-[2-(2-chlorophenyl)-5-(2,6-difluoro-4-methoxyphenyl)-1-methyl-3-oxo-2,3-dihydro-1H-pyrazol-4-yl]-4-(difluoromethoxy)benzamide]
0.013 µM	3.3 µM	COc1cc(F)c(-c2c(NC(=O)c3ccc(OC(F)(F)F)cc3)c(=O)n(-c3ccccc3Cl)n2C)c(F)c1 [Example 172, N-[2-(2-chlorophenyl)-5-(2,6-difluoro-4-methoxyphenyl)-1-methyl-3-oxo-2,3-dihydro-1H-pyrazol-4-yl]-4-(trifluoromethoxy)benzamide]
0.02 µM	> 10 µM	COc1cc(F)c(-c2c(NC(=O)c3ccc(OC(F)F)cc3)c(=O)n(-c3ccccc3C#N)n2C)c(F)c1 [Example 173, N-[2-(2-cyanophenyl)-5-(2,6-difluoro-4-methoxyphenyl)-1-methyl-3-oxo-2,3-dihydro-1H-pyrazol-4-yl]-4-(difluoromethoxy)benzamide]
0.007 µM	> 10 µM	COc1cc(F)c(-c2c(NC(=O)c3ccc(OC(F)(F)F)cc3)c(=O)n(-c3ccccc3C#N)n2C)c(F)c1 [Example 174, N-[2-(2-cyanophenyl)-5-(2,6-difluoro-4-methoxyphenyl)-1-methyl-3-oxo-2,3-dihydro-1H-pyrazol-4-yl]-4-(trifluoromethoxy)benzamide]
0.025 µM	> 10 µM	COc1cc(F)c(-c2c(NC(=O)c3ccc(OC(F)F)cc3)c(=O)n(-c3cccc(F)c3Cl)n2C)c(F)c1 [Example 175, N-[2-(2-chloro-3-fluorophenyl)-5-(2,6-difluoro-4-methoxyphenyl)-1-methyl-3-oxo-2,3-dihydro-1H-pyrazol-4-yl]-4-(difluoromethoxy)benzamide]
0.009 µM	> 10 µM	COc1cc(F)c(-c2c(NC(=O)c3ccc(OC(F)F)cc3)c(=O)n(-c3cc(Cl)ccc3Cl)n2C)c(F)c1 [Example 176, N-[2-(2,5-dichlorophenyl)-5-(2,6-difluoro-4-methoxyphenyl)-1-methyl-3-oxo-2,3-dihydro-1H-pyrazol-4-yl]-4-(difluoromethoxy)benzamide]
0.003 µM	0.003 µM	COc1cc(F)c(-c2c(NC(=O)c3ccc(OC(F)F)cc3)c(=O)n(-c3cccc(OC(F)F)c3)n2C)c(F)c1 [Example 177, N-[5-(2,6-difluoro-4-methoxyphenyl)-2-[3-(difluoromethoxy)phenyl]-1-methyl-3-oxo-2,3-dihydro-1H-pyrazol-4-yl]-4-(difluoromethoxy)benzamide]
